Source: patent US6525001B1, “Substituted pyrimidine and pyridine herbicides” (Mid-American Commercialization Corporation, priority 1997, dated 2003)

Tests used:
Assay in all cases: Test B pre-/postemergence
Type in all cases: in vivo
Set-up in all cases: key: 0 is no effect; 10 is complete control
[1] = test system: blackgrass (Alopecurus myosuroides)
Procedure, shortened: (§1)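 Response scores run from 0, meaning no effect, to 10, meaning complete control, assigned by eye relative to controls twelve to sixteen days after spraying. Treatment was both preemergence on planted seed and postemergence on plants at the 1- to 4-leaf stage.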

[2] = test system: crabgrass (Digitaria sanguinalis)
Procedure, shortened: as §1

[3] = test system: purple nutsedge (Cyperus rotundus)
Procedure, shortened: as §1

soybean (Glycine max) = test system: soybean (Glycine max)
Procedure, shortened: as §1

wild oat (Avena fatua) = test system: wild oat (Avena fatua)
Procedure, shortened: as §1

[4] = Preemergence, Rate 62 g/ha, scale of 0 to 10

SMILES	Plant response rating, Blackgrass [1, 4]	Plant response rating, Blackgrass ([1]; Rate 250 g/ha, Postemergence)	Plant response rating, Blackgrass ([1]; Rate 250 g/ha, Preemergence)	Plant response rating, Blackgrass ([1]; Rate 500 g/ha, Postemergence)	Plant response rating, Blackgrass ([1]; Rate 500 g/ha, Preemergence)	Plant response rating, Crabgrass ([2]; Rate 250 g/ha, Postemergence)	Plant response rating, Crabgrass ([2]; Rate 250 g/ha, Preemergence)	Plant response rating, Crabgrass ([2]; Rate 500 g/ha, Postemergence)	Plant response rating, Crabgrass ([2]; Rate 500 g/ha, Preemergence)	Plant response rating, Nutsedge ([3]; Rate 250 g/ha, Postemergence)	Plant response rating, Nutsedge ([3]; Rate 250 g/ha, Preemergence)	Plant response rating, Nutsedge ([3]; Rate 500 g/ha, Preemergence)	Plant response rating, Soybean (soybean (Glycine max); Rate 250 g/ha, Postemergence)	Plant response rating, Soybean (soybean (Glycine max); Rate 250 g/ha, Preemergence)	Plant response rating, Soybean (soybean (Glycine max); Rate 500 g/ha, Postemergence)	Plant response rating, Soybean (soybean (Glycine max); Rate 500 g/ha, Preemergence)	Plant response rating, Wild oats (wild oat (Avena fatua); Rate 250 g/ha, Postemergence)	Plant response rating, Wild oats (wild oat (Avena fatua); Rate 250 g/ha, Preemergence)	Plant response rating, Wild oats (wild oat (Avena fatua); Rate 500 g/ha, Postemergence)	Plant response rating, Wild oats (wild oat (Avena fatua); Rate 500 g/ha, Preemergence)	further results
Cc1cnc(-c2ccc(C(F)(F)F)cc2)nc1Cn1ccc(C#N)n1 [Compound 53]	0	1	1	6	2	4	6	4	8	0	0	0	7	0	7	0	1	1	2	1	Blackgrass plant response rating ([1]; Rate 62 g/ha, Postemergence): 1; Blackgrass plant response rating ([1]; Rate 125 g/ha, Postemergence): 1; Plant response rating, Blackgrass ([1]; Rate 125 g/ha, Preemergence): 0; Crabgrass plant response rating ([2]; Rate 62 g/ha, Postemergence): 1; Crabgrass plant response rating ([2]; Rate 125 g/ha, Postemergence): 2; Plant response rating, Crabgrass ([2]; Rate 125 g/ha, Preemergence): 4; Plant response rating, Nutsedge [3, 4]: 0; Nutsedge plant response rating ([3]; Rate 62 g/ha, Postemergence): 0; Nutsedge plant response rating ([3]; Rate 125 g/ha, Postemergence): 0; Plant response rating, Nutsedge ([3]; Rate 125 g/ha, Preemergence): 0; Plant response rating, Soybean (soybean (Glycine max); [4]): 0; Soybean plant response rating (soybean (Glycine max); Rate 62 g/ha, Postemergence): 5; Soybean plant response rating (soybean (Glycine max); Rate 125 g/ha, Postemergence): 5; Plant response rating, Soybean (soybean (Glycine max); Rate 125 g/ha, Preemergence): 0; Plant response rating, Wild oats (wild oat (Avena fatua); [4]): 0; Wild oats plant response rating (wild oat (Avena fatua); Rate 62 g/ha, Postemergence): 1; Wild oats plant response rating (wild oat (Avena fatua); Rate 125 g/ha, Postemergence): 1; Plant response rating, Wild oats (wild oat (Avena fatua); Rate 125 g/ha, Preemergence): 0
Cc1cnc(-n2ccc(C(F)(F)F)n2)nc1C(=O)c1ccc(C(F)(F)F)cc1 [Compound 65]	0	0	0	0	0	1	0	1	0	0	0	0	2	0	2	0	1	0	1	0	Blackgrass plant response rating ([1]; Rate 62 g/ha, Postemergence): 0; Blackgrass plant response rating ([1]; Rate 125 g/ha, Postemergence): 0; Plant response rating, Blackgrass ([1]; Rate 125 g/ha, Preemergence): 0; Plant response rating, Crabgrass [2, 4]: 0; Crabgrass plant response rating ([2]; Rate 62 g/ha, Postemergence): 1; Crabgrass plant response rating ([2]; Rate 125 g/ha, Postemergence): 1; Plant response rating, Crabgrass ([2]; Rate 125 g/ha, Preemergence): 0; Plant response rating, Nutsedge [3, 4]: 0; Nutsedge plant response rating ([3]; Rate 62 g/ha, Postemergence): 0; Nutsedge plant response rating ([3]; Rate 125 g/ha, Postemergence): 0; Plant response rating, Nutsedge ([3]; Rate 125 g/ha, Preemergence): 0; Plant response rating, Soybean (soybean (Glycine max); [4]): 0; Soybean plant response rating (soybean (Glycine max); Rate 62 g/ha, Postemergence): 1; Soybean plant response rating (soybean (Glycine max); Rate 125 g/ha, Postemergence): 2; Plant response rating, Soybean (soybean (Glycine max); Rate 125 g/ha, Preemergence): 0; Plant response rating, Wild oats (wild oat (Avena fatua); [4]): 0; Wild oats plant response rating (wild oat (Avena fatua); Rate 62 g/ha, Postemergence): 1; Wild oats plant response rating (wild oat (Avena fatua); Rate 125 g/ha, Postemergence): 1; Plant response rating, Wild oats (wild oat (Avena fatua); Rate 125 g/ha, Preemergence): 0
Cc1cnc(-c2ccc(Cl)cc2)nc1Cn1ccc(C(F)(F)F)n1 [Compound 6]	–	2	0	2	4	8	8	9	10	2	0	0	6	0	6	0	3	2	3	3	Plant response rating, Blackgrass ([1]; Rate 62 g/ha, Postemergence): 0; Blackgrass plant response rating ([1]; Rate 62 g/ha, Preemergence): 0; Plant response rating, Blackgrass ([1]; Rate 125 g/ha, Postemergence): 2; Blackgrass plant response rating ([1]; Rate 125 g/ha, Preemergence): 0; Plant response rating, Crabgrass ([2]; Rate 62 g/ha, Postemergence): 5; Crabgrass plant response rating ([2]; Rate 62 g/ha, Preemergence): 1; Plant response rating, Crabgrass ([2]; Rate 125 g/ha, Postemergence): 8; Crabgrass plant response rating ([2]; Rate 125 g/ha, Preemergence): 2; Plant response rating, Nutsedge ([3]; Rate 62 g/ha, Postemergence): 2; Nutsedge plant response rating ([3]; Rate 62 g/ha, Preemergence): 0; Nutsedge plant response rating ([3]; Rate 125 g/ha, Preemergence): 0; Plant response rating, Nutsedge ([3]; Rate 500 g/ha, Postemergence): 3; Plant response rating, Soybean (soybean (Glycine max); Rate 62 g/ha, Postemergence): 6; Soybean plant response rating (soybean (Glycine max); Rate 62 g/ha, Preemergence): 0; Plant response rating, Soybean (soybean (Glycine max); Rate 125 g/ha, Postemergence): 6; Soybean plant response rating (soybean (Glycine max); Rate 125 g/ha, Preemergence): 0; Plant response rating, Wild oats (wild oat (Avena fatua); Rate 62 g/ha, Postemergence): 0; Wild oats plant response rating (wild oat (Avena fatua); Rate 62 g/ha, Preemergence): 0; Plant response rating, Wild oats (wild oat (Avena fatua); Rate 125 g/ha, Postemergence): 3; Wild oats plant response rating (wild oat (Avena fatua); Rate 125 g/ha, Preemergence): 0
